Key:
[1] = test system: Long-Evans rat pups (neonatal HI); experiment: White matter myelination, oligodendrocytes and neuroinflammation after neonatal HI; type: in vivo; settings: P30
Protocol: Neonatal HI was induced in male Long-Evans rat pups at postnatal day 10 (P10) by left common carotid ligation followed by 2-hour exposure to 8% oxygen. Sham operated rat pups served as control. […] At P30, rats were sacrificed and their brains extracted. Hematoxylin and eosin staining was performed to analyze the structure of the myelin sheath. Olig2 and CC-1 immunostaining were performed to assess the proportion of mature oligodendrocyte to total oligodendrocytes. GFAP, Iba1, and Mac2 immunostaining was used to label reactive astrocytes and activated microglia. Collagen IV was used to investigate microvessels. Corpus callosum and left external capsule were the 2 regions where these markers were assessed to evaluate “white matter”.

[2] = test system: Long-Evans rat pups (term neonatal HIE model); experiment: Brain structure, hematoxylin and eosin coronal sections at P30; settings: HI
Protocol: A well-established Vannucci rat model of term neonatal HIE, which combined a left common carotid artery ligation and a 2 hour exposure to hypoxia (8% oxygen) in 10-day-old (P10) rat pups, was used for the experiments, since this model is generally recognized to mimic the brain injuries observed in human term asphyxiated newborns. Briefly, the 10-day-old male Long-Evans rat pups were weighed and then deeply anesthetized with an intraperitoneal injection of fentanyl (0.2 mg/kg) and midazolam (1 mg/kg) to the point of unresponsiveness to noxious stimulation. Lidocaine-prilocaine cream (EMLA®; AstraZeneca Inc.) was applied to the ventral neck skin 30 minutes before surgery. The skin was cleaned with 2% chlorhexidine solution followed by 70% alcohol. A vertical incision was made along the ventral surface of the neck. The left common carotid artery was located, isolated, and then ligated with a single tight suture. Following the unilateral ligation, the skin incision was closed with an adhesive (n-butyl cyanoacrylate; 3 M VetBond Tissue Adhesive®; 3 M USA). The anesthesia was reversed with an intraperitoneal injection of naloxone (0.1 mg/kg) and flumazenil (1 mg/kg). […] For each rat pup, anesthesia time and surgical time were kept to a minimal time of less than 5-10 minutes. The pups were allowed to recover for approximately 1.5 h after surgery and then were placed in a sealed hypoxia chamber (Plastic Concepts, North Billerica, USA). The sealed chamber was infused with nitrogen until a level of 8% oxygen was reached, which was maintained for 2 h (oxygen analyzer model 600, Engineered Systems & Designs, Newark, Del.). The pups were allowed to recover for 30 minutes and then were returned to their cages with the mother. The rats undergoing the whole procedure were considered as the hypoxic-ischemic (HI) group (n=10-12 animals/groups). Sham operated rat pups (identical procedure as the HI group, but not the ligation and hypoxia) served as the control group (n=10-12 animals/groups). […]

[3] = test system: Long-Evans rat pups (neonatal HI); experiment: Hippocampal injury and neuroinflammation after neonatal HI; type: in vivo; settings: P30
Protocol: Neonatal HI was induced in male Long-Evans rat pups at postnatal day 10 (P10) by left common carotid ligation followed by 2-hour exposure to 8% oxygen. Sham operated rat pups served as control. […] At P30, rats were sacrificed and their brains extracted. CA1, CA3 and dentate gyrus (DG) areas of the ipsilateral hippocampus were analyzed for microgliosis (Iba1) and astrogliosis (GFAP), neuronal number (NeuN), and vascular density (collagen IV).

[4] = test system: Long-Evans rat pups (neonatal HI); experiment: Cerebellum injury after neonatal HI; type: in vivo; settings: P30
Protocol: Neonatal HI was induced in male Long-Evans rat pups at postnatal day 10 (P10) by left common carotid ligation followed by a 2-hour exposure to 8% oxygen; sham operated rat pups served as the control. […] At P30, the rats were sacrificed, and the cerebellum was extracted. The internal granular layers and molecular layers of the cerebellum were measured across all groups on cresyl violet-stained cerebellum sections. Astrocytes expressing Vascular Endothelial Growth Factor (VEGF) in the internal granular layers and molecular layers were quantified using immunohistochemistry.

[5] = test system: Long-Evans rat pups (neonatal HI); experiment: Retinal immunohistochemistry after neonatal HI; type: in vivo; settings: sildenafil 2, 10 or 50 mg/kg 7 days, P30
Description: Neonatal hypoxia-ischemia (HI) was induced in male Long-Evans rat pups at postnatal day 10 (P10) by left common carotid ligation followed by 2-hour exposure to 8% oxygen. […] At P30, rats were sacrificed and their eyes were extracted.

[6] = test system: Long-Evans rat pups (term neonatal HIE model); experiment: Neurons count (NeuN) in cortex at P30; type: in vivo; settings: HI; for neuronal number near the infarct boundary zone, median (IQR): ipsilateral cortex
Protocol: Using the second slide prepared for each animal, an immunohistochemistry was performed to examine the number of mature neurons. Neurons were labeled with an anti-neuronal nuclei (NeuN) antibody (Millipore: MAB377, Billerica, Mass., USA) (dilution 1:500, incubation time 1 hour at room temperature) (Hendrickson M L et al., 2011). Sections then were incubated with the secondary antibody Alexa Fluor® 488 goat anti-rabbit IgG (Molecular Probes®, Life Technologies: A11034, Carlsbad, Calif., USA) (dilution 1:1000, incubation time 2 hours at 4° C.). These sections were rinsed with tris-buffered saline and cover slipped with Vectashield Mounting media containing 4,6-diamidino-2-phenylindole (DAPI) (Vector Laboratories: H1200, Burlingame, Calif., USA) to visualize cell nuclei. Cells co-labeled with NeuN and DAPI were identified as neurons. […] One investigator took pictures of the respective fields of view at 10× magnification.

Q: What does the source list for `CCCc1nn(C)c2c(=O)[nH]c(-c3cc(S(=O)(=O)N4CCN(C)CC4)ccc3OCC)nc12` [sildenafil]?
A: myelin sheath thickness in corpus callosum and left external capsule ([1]; HI, all dosage): reverted the myelin sheath thickness back to levels comparable to sham vehicle rat animals; microvessel density in the white matter [1]: no changes; number of total and mature oligodendrocytes in the left external capsule ([1]; after sildenafil): no changes; reactive astrocytosis and microgliosis in the corpus callosum and left external capsule ([1]; higher doses of sildenafil): significant reduction; number of mature oligodendrocytes in the corpus callosum ([1]; sildenafil 50 mg/kg): significantly increased; number of total oligodendrocytes in the corpus callosum ([1]; sildenafil 50 mg/kg): significantly increased; total brain size, median (IQR) ([2]; high-dose sildenafil, not different from sham vehicle): 93.05 (91.53; 93.95); total brain size, median (IQR) ([2]; low-dose sildenafil, p<0.05 vs sham vehicle): 92.19 (81.51; 97.58); total brain size, median (IQR) ([2]; medium-dose sildenafil, not different from sham vehicle): 94.05 (84.4; 95.0); neuronal number in the dentate gyrus ([3]; HI, 50 mg/kg, vs sham vehicle): significantly increases; number of activated microglia and reactive astrocytes in CA1 and dentate gyrus of the hippocampus ([3]; HI, higher doses (10 mg/kg and 50 mg/kg)): significantly reduced; vascular density in hippocampus ([3]; treatment groups vs control group): no changes in vascular density; thickness of internal granular layers and molecular layers of the cerebellum ([4]; oral sildenafil 2, 10 or 50 mg/kg twice daily 7 days): improvement in the overall thickness of these layers; VEGF expressing astrocytes in cerebellum ([4]; oral sildenafil): reduction of VEGF expressing astrocytes; neuroinflammation, number of astrocytes in retina [5]: decreasing the number of astrocytes; number of retinal ganglion cells and bipolar cells [5]: restored the number of retinal ganglion cells and bipolar cells; neuronal number near the infarct boundary zone, median (IQR) ([6]; high-dose sildenafil, p<0.001): 1368 (1292; 1444) neurons/mm^2; neuronal number in corresponding region of contralateral cortex, median (IQR) ([6]; high-dose sildenafil, p<0.001): 1019 (948; 1106) neurons/mm^2; neuronal number in corresponding region of contralateral cortex, median (IQR) ([6]; low-dose sildenafil, not significant): 808 (586; 963) neurons/mm^2; neuronal number in corresponding region of contralateral cortex, median (IQR) ([6]; medium-dose sildenafil, p<0.001): 999 (930; 1107) neurons/mm^2; neuronal number near the infarct boundary zone, median (IQR) ([6]; sildenafil 2 mg/kg, p<0.01): 1118 (1069; 1238) neurons/mm^2; neuronal number near the infarct boundary zone, median (IQR) ([6]; sildenafil 10 mg/kg, p<0.001): 1222 (1170; 1338) neurons/mm^2
